Results on 30 molecules are retold here after PMC7587356, “High-Throughput Screening for Inhibitors of the SARS-CoV-2 Protease Using a FRET-Biosensor” (Molecules, 2020).

Each structure is given as a SMILES string. Where a name gives a salt, the structure may show the parent alone. Read-outs that look alike come from different tables or passages of the source.

The test deals with SARS-CoV-2 3CLpro (Severe acute respiratory syndrome coronavirus 2, UniProt P0DTD1). In words: biochemical. Type of test: biochemical. Details: Replicate_1 / Replicate_2 / mean / mean (LOPAC_screen_w_protease): unit not given here. The conditions noted are these: for inhibition at 5 µM: 4 h; for mean (LOPAC screen with protease) / Replicate_1 (LOPAC screen with protease) / Replicate_2 (LOPAC screen with protease): primary screen at 5 µM.

Setting [1] is: sheet LOPAC_screen_w_protease, LOPAC1280 primary screen at 5 µM, with protease, replicate 1.
Setting [2] is: sheet LOPAC_screen_w_protease, LOPAC1280 primary screen at 5 µM, with protease, replicate 2.
The mark [3] stands for this setting: sheet LOPAC_screen_w_protease, LOPAC1280 primary screen with protease, 5 µM compound, mean of the two replicates, read-out: mean.
Setting [4] is: sheet LOPAC_screen_w_protease, LOPAC1280 primary screen with protease, 5 µM compound, replicate 1, read-out: Replicate_1.
[5] abbreviates: sheet LOPAC_screen_w_protease, LOPAC1280 primary screen with protease, 5 µM compound, replicate 2, read-out: Replicate_2.
Setting [6] is: sheet LOPAC_screen_w_protease, mean of two replicates.
Setting [7] is: sheet LOPAC_screen_w_protease, replicate 1.
[8] abbreviates: sheet LOPAC_screen_w_protease, replicate 2.
[9] abbreviates: LOPAC1280 primary screen with protease, 5 µM compound, mean of the two replicates.
Where [10] appears, read: LOPAC1280 primary screen with protease, 5 µM compound, replicate 1.
Setting [11] is: LOPAC1280 primary screen with protease, 5 µM compound, replicate 2.
The mark [12] stands for this setting: sheet LOPAC_screen_w_protease, primary screen with protease, 5 µM, mean of two replicates.
[13] abbreviates: sheet LOPAC_screen_w_protease, primary screen with protease, 5 µM, replicate 1.
[14] abbreviates: sheet LOPAC_screen_w_protease, primary screen with protease, 5 µM, replicate 2.
Setting [15] is: LOPAC1280 primary screen with protease, 5 µM compound, replicate 1, read-out: Replicate_1 (LOPAC_screen_w_protease).
Setting [16] is: LOPAC1280 primary screen with protease, 5 µM compound, replicate 2, read-out: Replicate_2 (LOPAC_screen_w_protease).
Where [17] appears, read: LOPAC1280 primary screen with protease, 5 µM compound, mean of two replicates.
The mark [18] stands for this setting: sheet LOPAC_screen_w_protease, primary screen with protease, compound at 5 µM, mean of two replicates.
Where [19] appears, read: sheet LOPAC_screen_w_protease, primary screen with protease, compound at 5 µM, replicate 1.
[20] abbreviates: sheet LOPAC_screen_w_protease, primary screen with protease, compound at 5 µM, replicate 2.
The mark [21] stands for this setting: sheet LOPAC_screen_w_protease, primary screen with protease, compound at 5 µM, mean of two replicates, read-out: mean.
Setting [22] is: sheet LOPAC_screen_w_protease, primary screen with protease, compound at 5 µM, replicate 1, read-out: Replicate_1.
Setting [23] is: sheet LOPAC_screen_w_protease, primary screen with protease, compound at 5 µM, replicate 2, read-out: Replicate_2.

As for `CCCn1c(=O)c2[nH]c(-c3ccc(OCC(=O)NCCN)cc3)nc2n(CCC)c1=O` [Xanthine amine congener], the mean (sheet LOPAC_screen_w_protease, LOPAC1280 primary screen at 5 µM, with protease, mean of two replicates) is given as -1.654. For the same molecule, the Replicate_1 under setting [1] was -1.399. The molecule further returned a Replicate_2 under setting [2] of -1.91.

Consider `O=c1nc2[nH]c3ccccc3nc-2c(=O)[nH]1` [Alloxazine], for which the inhibition at 5 µM reads like this: under setting [3], 4.73%; under setting [4], 4.91%; under setting [5], 4.55%.

Consider `N[C@@H](Cn1cc(I)c(=O)[nH]c1=O)C(=O)O` [S-5-Iodowillardiine], for which the “mean (LOPAC screen with protease)” value under setting [6] amounted to 6.582. Moreover, under setting [7], the “Replicate_1 (LOPAC screen with protease)” value turned out to be 5.993. Moreover, under setting [8], the “Replicate_2 (LOPAC screen with protease)” value amounted to 7.171.

As for `CCCCS(=N)(=O)CCC(N)C(=O)O` (racemic) [DL-Buthionine-[S,R]-sulfoximine], the mean (sheet LOPAC_screen_w_protease, LOPAC1280 primary screen at 5 µM, with protease, mean of the two replicates) was 0.7813. Under setting [1], this molecule yielded a Replicate_1 of 0.9596. Moreover, the Replicate_2 under setting [2] is listed as 0.6029.

Regarding `CC(=O)N[C@@H](CS)C(=O)O` [N-Acetyl-L-Cysteine], the inhibition at 5 µM is, setting by setting: (read-out: Replicate_1) 0.481%; (read-out: Replicate_2) 0.723%; (read-out: mean) 0.602%.

`O=[N+]([O-])c1cccc2c(Br)n[nH]c12` [3-Bromo-7-nitroindazole]: under setting [9], the “mean (LOPAC_screen_w_protease)” value was 1.829. Further, the “Replicate_1 (LOPAC_screen_w_protease)” value under setting [10] is given as 2.045. Moreover, the “Replicate_2 (LOPAC_screen_w_protease)” value under setting [11] is listed as 1.613.

Under setting [12], `CC(C)C[C@H](NP(=O)([O-])O[C@H]1O[C@H](C)[C@@H](O)[C@H](O)[C@@H]1O)C(=O)N[C@@H](Cc1c[nH]c2ccccc12)C(=O)[O-].[Na+].[Na+]` [Phosphoramidon disodium] gave a mean of 0.1697. This molecule registered a Replicate_1 under setting [13] of 0.5227. Also, under setting [14], the Replicate_2 is listed as -0.1832.

As for `CC(=O)Oc1ccccc1C(=O)O` [Acetylsalicylic acid], the inhibition at 5 µM was 1.9% under setting [15] and 1.38% under setting [16]. Moreover, the “mean (LOPAC_screen_w_protease)” value under setting [17] is given as 1.637.

Under setting [18], `[N-]=[N+]=Nc1ccc(C(=O)CSC[C@H](NC(=O)CC[C@H](N)C(=O)O)C(=O)NCC(=O)O)cc1` [S-(p-Azidophenacyl)glutathione] came in with a mean of 2.647. The molecule further gave a Replicate_1 under setting [19] of 2.672. Under setting [20], this molecule yielded a Replicate_2 of 2.621.

On to `CC(CN1c2ccccc2Sc2ccccc21)N(C)C` (stereo not drawn) [Promethazine hydrochloride], for which the inhibition at 5 µM (sheet LOPAC_screen_w_protease, primary screen of LOPAC1280 at 5 µM with protease, mean of the two replicates, read-out: mean) amounted to 3.55%; the inhibition at 5 µM (sheet LOPAC_screen_w_protease, primary screen of LOPAC1280 at 5 µM with protease, replicate 1, read-out: Replicate_1) was determined as 1.74%; the inhibition at 5 µM (sheet LOPAC_screen_w_protease, primary screen of LOPAC1280 at 5 µM with protease, replicate 2, read-out: Replicate_2) was 5.35%.

Turning to `Br.Br.N=C(N)SCCN`, the “mean (LOPAC_screen_w_protease)” value under setting [9] was determined as 2.032. Besides, the “Replicate_1 (LOPAC_screen_w_protease)” value under setting [10] came to 2.956. Moreover, the “Replicate_2 (LOPAC_screen_w_protease)” value under setting [11] is 1.108.

As for `NCCc1c[nH]cn1` [Histamine dihydrochloride], the inhibition at 5 µM runs as follows: (read-out: Replicate_1) 3.24%; (read-out: Replicate_2) -1.24%; (read-out: mean) 1%.

For the molecule `Br.NC1CCc2cc(O)c(O)cc2C1` (stereo not drawn) [6,7-ADTN hydrobromide], the “mean (LOPAC screen with protease)” value under setting [6] is given as 64.0916. Moreover, the “Replicate_1 (LOPAC screen with protease)” value under setting [7] amounted to 63.1732. For the same molecule, under setting [8], the “Replicate_2 (LOPAC screen with protease)” value came out at 65.0099.

Regarding `CCCCC/C=C\C[C@@H](O)/C=C/c1cccc(C[C@@H](O)CCCCO)n1` [U-75302], the “mean (LOPAC_screen_w_protease)” value under setting [17] stood at 1.3528. Besides, under setting [10], the “Replicate_1 (LOPAC_screen_w_protease)” value is 0.07831. Besides, under setting [11], the “Replicate_2 (LOPAC_screen_w_protease)” value was determined as 2.627.

In the case of `CN(C)CCC(c1ccc(Br)cc1)c1ccccn1.O=C(O)/C=C\C(=O)O` (racemic) [(±)-Brompheniramine maleate], the mean under setting [18] is 2.6339. Besides, under setting [19], the Replicate_1 is 2.5605. Besides, the Replicate_2 under setting [20] came out at 2.707.

With `CCCCCCCCCCCCCCCCCC(=O)OC(CC(=O)O)C[N+](C)(C)C.[Cl-]` (racemic) [DL-Stearoylcarnitine chloride], the “mean (LOPAC_screen_w_protease)” value under setting [9] came to 1.7681. The “Replicate_1 (LOPAC_screen_w_protease)” value under setting [10] was 3.299. In addition, under setting [11], the “Replicate_2 (LOPAC_screen_w_protease)” value is 0.2369.

As for `CCCCS(=N)(=O)CC[C@H](N)C(=O)O` (stereo partly drawn) [L-Buthionine-sulfoximine], the inhibition at 5 µM runs as follows: under setting [15], 1.94%; under setting [16], 2.27%. Also, the “mean (LOPAC_screen_w_protease)” value under setting [9] came to 2.107.

Turning to `CC(NC(C)(C)C)C(=O)c1cccc(Cl)c1` (stereo not drawn) [Bupropion hydrochloride], the inhibition at 5 µM runs as follows: (read-out: Replicate_1) 2.66%; (read-out: Replicate_2) 2.67%; (read-out: mean) 2.67%.

`Cc1cc(NC(=O)Nc2ccc3c(ccn3C)c2)sn1` [SB 204741] registered a mean under setting [12] of 0.4215. The molecule further registered a Replicate_1 under setting [13] of 0.3793. Also, the Replicate_2 under setting [14] was found to be 0.4638.

As for `CCN1C[C@]2(C)CC[C@H](O)[C@]34C1[C@@H](C[C@H]23)[C@@]1(O)C[C@H](OC)[C@H]2C[C@@H]4[C@@H]1[C@H]2O` [Karakoline], the “mean (LOPAC_screen_w_protease)” value is on record as 1.99. Besides, the inhibition at 5 µM (read-out: Replicate_1 (LOPAC_screen_w_protease)) was determined as 1.52%. The inhibition at 5 µM (read-out: Replicate_2 (LOPAC_screen_w_protease)) came out at 2.46%.

Turning to `O=C(O)c1cc(O)cc(C(=O)O)n1` [Chelidamic acid], the inhibition at 5 µM worked out at 3.14% under setting [21], 2.7% under setting [22] and 3.58% under setting [23].

`CN(C)CCCN1c2ccccc2Sc2ccc(C(F)(F)F)cc21` [Triflupromazine hydrochloride]: the inhibition at 5 µM is, setting by setting: (sheet LOPAC_screen_w_protease, LOPAC1280 primary screen at 5 µM, with protease, mean of the two replicates, read-out: mean) 0.692%; (sheet LOPAC_screen_w_protease, LOPAC1280 primary screen at 5 µM, with protease, replicate 1, read-out: Replicate_1) 1.65%; (sheet LOPAC_screen_w_protease, LOPAC1280 primary screen at 5 µM, with protease, replicate 2, read-out: Replicate_2) -0.271%.

Turning to `CCCCCC(O)c1cccc(OCc2ccc3ccccc3n2)c1` (stereo not drawn) [REV 5901], the inhibition at 5 µM was found to be 0.337% (sheet LOPAC_screen_w_protease, primary screen with protease, 5 µM, mean of two replicates, read-out: mean); 0.269% (sheet LOPAC_screen_w_protease, primary screen with protease, 5 µM, replicate 1, read-out: Replicate_1); 0.406% (sheet LOPAC_screen_w_protease, primary screen with protease, 5 µM, replicate 2, read-out: Replicate_2).

`c1ccc(C2CN3CCSC3=N2)cc1` (stereo not drawn) [Tetramisole hydrochloride]: the inhibition at 5 µM is, setting by setting: (read-out: Replicate_1) 1.43%; (read-out: Replicate_2) -2.01%; (read-out: mean) -0.287%.

With `Fc1ccc(C(c2ccc(F)cc2)N2CCN(C/C=C/c3ccccc3)CC2)cc1` [Flunarizine dihydrochloride], the inhibition at 5 µM is 2.85% under setting [21], 3.4% under setting [22] and 2.29% under setting [23].

`CCCCC1C(=O)N(c2ccccc2)N(c2ccccc2)C1=O` [Phenylbutazone]: the inhibition at 5 µM came out at 6.15% under setting [3], 6% under setting [4] and 6.3% under setting [5].

For `NCCCCNCCCN` [Spermidine trihydrochloride], the inhibition at 5 µM runs as follows: under setting [3], 4.14%; under setting [4], 3.25%; under setting [5], 5.03%.

Consider `COc1ccc(CN(CCN(C)C)c2ccccn2)cc1` [Pyrilamine maleate], for which the inhibition at 5 µM reads like this: (sheet LOPAC_screen_w_protease, primary screen with protease, mean of two replicates, read-out: mean) 2.44%; (sheet LOPAC_screen_w_protease, primary screen with protease, replicate 1, read-out: Replicate_1) 1.24%; (sheet LOPAC_screen_w_protease, primary screen with protease, replicate 2, read-out: Replicate_2) 3.63%.

For the molecule `Cc1nc2c([nH]1)c(=O)n(C)c(=O)n2Cc1ccco1` [Furafylline], the inhibition at 5 µM runs as follows: under setting [15], 3.1%; under setting [16], -0.41%. Besides, under setting [17], the “mean (LOPAC_screen_w_protease)” value turned out to be 1.344.

`CC(C)NCC(O)c1ccc(NS(C)(=O)=O)cc1.Cl` (racemic) [(±)-Sotalol hydrochloride]: the “mean (LOPAC_screen_w_protease)” value under setting [17] is 1.4398. The “Replicate_1 (LOPAC_screen_w_protease)” value under setting [10] was 1.054. The “Replicate_2 (LOPAC_screen_w_protease)” value under setting [11] was 1.826.
